Source: patent US20260207585A1, “METHODS AND COMPOSITIONS FOR THE TREATMENT OF PARKINSON'S DISEASE, HUNTINGTON'S DISEASE, AMYOTROPHIC LATERAL SCLEROSIS, AND LEARNING DISORDERS” (Cedars-Sinai Medical Center, priority 2022, published 2026)
Like-named read-outs stand apart in the source and are kept apart here.

How the values were obtained:
EZH1 Complex = EZH1 Complex (Homo sapiens, UniProt Q92800); assay: Methyltransferase inhibition panel: EZH1 Complex; type: biochemical; conditions: NT1721 20 μM; substrate Core Histone 0.05 mg/mL
Sequence of EZH1 Complex (Q92800 whole entry): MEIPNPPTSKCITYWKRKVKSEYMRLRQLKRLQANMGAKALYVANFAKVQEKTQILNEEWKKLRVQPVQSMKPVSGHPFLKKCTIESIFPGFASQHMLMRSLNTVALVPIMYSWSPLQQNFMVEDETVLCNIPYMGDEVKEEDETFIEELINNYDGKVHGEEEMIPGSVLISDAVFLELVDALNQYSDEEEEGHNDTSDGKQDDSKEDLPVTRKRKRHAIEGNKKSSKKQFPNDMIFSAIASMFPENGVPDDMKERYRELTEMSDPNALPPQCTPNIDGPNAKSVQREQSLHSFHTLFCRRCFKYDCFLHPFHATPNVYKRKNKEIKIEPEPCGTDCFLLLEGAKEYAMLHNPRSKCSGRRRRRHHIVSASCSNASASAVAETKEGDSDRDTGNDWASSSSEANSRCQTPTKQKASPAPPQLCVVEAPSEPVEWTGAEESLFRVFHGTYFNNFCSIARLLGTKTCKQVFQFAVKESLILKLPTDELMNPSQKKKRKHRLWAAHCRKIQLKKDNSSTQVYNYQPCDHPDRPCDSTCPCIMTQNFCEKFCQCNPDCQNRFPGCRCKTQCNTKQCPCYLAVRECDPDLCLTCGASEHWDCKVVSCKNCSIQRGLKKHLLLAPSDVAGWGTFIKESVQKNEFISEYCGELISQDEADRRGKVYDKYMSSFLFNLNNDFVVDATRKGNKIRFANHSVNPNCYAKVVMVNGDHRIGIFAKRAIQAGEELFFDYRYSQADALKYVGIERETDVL
Sequence of EZH1 Complex (O75530 whole entry partner): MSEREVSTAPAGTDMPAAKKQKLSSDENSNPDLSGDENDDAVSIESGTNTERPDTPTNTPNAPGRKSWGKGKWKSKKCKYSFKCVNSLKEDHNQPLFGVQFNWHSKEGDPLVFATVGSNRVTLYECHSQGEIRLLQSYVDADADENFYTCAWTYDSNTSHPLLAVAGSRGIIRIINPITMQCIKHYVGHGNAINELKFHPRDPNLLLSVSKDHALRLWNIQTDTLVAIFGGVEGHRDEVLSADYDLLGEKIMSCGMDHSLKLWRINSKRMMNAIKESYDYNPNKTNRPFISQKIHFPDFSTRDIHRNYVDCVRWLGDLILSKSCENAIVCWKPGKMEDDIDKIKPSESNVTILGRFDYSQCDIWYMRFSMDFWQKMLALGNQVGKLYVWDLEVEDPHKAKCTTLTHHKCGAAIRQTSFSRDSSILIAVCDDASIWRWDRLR
Sequence of EZH1 Complex (Q15022 whole entry partner): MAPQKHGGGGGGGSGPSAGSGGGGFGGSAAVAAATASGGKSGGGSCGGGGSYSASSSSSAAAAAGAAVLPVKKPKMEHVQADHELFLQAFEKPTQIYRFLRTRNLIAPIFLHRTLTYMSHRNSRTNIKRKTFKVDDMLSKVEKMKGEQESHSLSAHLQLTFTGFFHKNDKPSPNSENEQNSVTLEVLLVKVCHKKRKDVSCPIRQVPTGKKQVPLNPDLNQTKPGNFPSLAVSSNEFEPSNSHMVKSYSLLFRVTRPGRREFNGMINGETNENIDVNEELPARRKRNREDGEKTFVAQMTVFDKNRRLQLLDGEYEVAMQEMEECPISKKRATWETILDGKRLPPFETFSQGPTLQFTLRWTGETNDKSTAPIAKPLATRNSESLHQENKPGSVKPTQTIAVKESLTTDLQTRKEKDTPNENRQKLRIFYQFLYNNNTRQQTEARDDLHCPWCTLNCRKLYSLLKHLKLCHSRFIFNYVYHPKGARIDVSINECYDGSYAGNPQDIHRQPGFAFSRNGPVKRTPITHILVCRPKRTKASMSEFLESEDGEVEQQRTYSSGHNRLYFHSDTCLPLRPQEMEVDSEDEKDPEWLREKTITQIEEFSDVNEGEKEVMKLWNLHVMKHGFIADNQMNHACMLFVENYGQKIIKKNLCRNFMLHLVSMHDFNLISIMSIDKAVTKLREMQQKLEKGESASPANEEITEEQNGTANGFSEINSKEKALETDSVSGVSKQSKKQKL
Sequence of EZH1 Complex (Q09028 whole entry partner): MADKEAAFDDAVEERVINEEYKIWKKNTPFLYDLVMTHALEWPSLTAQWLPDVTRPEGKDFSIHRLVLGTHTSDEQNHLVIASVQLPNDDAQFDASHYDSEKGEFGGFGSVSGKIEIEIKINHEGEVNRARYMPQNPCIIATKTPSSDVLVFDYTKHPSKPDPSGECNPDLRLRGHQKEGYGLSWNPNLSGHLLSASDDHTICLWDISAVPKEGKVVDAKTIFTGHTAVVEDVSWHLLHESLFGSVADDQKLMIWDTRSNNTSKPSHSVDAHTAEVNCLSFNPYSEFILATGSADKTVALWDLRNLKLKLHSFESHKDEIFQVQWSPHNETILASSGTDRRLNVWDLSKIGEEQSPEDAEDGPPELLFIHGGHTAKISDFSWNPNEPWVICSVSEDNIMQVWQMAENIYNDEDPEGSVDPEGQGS
Sequence of EZH1 Complex (Q6ZN18 whole entry partner): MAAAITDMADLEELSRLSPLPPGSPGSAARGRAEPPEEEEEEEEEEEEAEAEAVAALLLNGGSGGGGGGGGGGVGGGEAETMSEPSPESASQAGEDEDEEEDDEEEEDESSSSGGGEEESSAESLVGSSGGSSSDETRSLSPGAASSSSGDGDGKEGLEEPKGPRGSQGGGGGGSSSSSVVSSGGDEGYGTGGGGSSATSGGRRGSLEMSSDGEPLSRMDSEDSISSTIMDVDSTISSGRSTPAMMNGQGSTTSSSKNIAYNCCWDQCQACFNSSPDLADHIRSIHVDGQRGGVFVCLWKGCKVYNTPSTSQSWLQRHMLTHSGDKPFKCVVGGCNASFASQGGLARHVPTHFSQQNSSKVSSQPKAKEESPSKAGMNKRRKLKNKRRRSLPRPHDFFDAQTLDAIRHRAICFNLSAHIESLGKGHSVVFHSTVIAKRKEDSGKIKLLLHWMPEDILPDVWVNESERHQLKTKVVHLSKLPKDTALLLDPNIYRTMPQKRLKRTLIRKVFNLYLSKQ
Description: (§1) The ability of ETP69 to inhibit methyltransferases was tested.

[1] = system: wildtype and AD model (APP/PS1-transgenic) mice; assay: Visual stimuli X-maze (ViS4M) test, colour and contrast modes; type: in vivo
Description: The effects of single and repeated ETP69 injections in mice were tested. The experimental timeline is depicted in FIG. 5. Three parallel injection conditions were tested: a single ETP69 condition, a boosted ETP69 injection, and repeated ETP69 injections. The single injection mice received one injection of ETP69 or DMSO at Day 0. The mice that received a boosted injection received one injection of ETP69 or DMSO at day 0 and one injection at day 9. The mice that received repeated injections received 11 injections of ETP69 or DMSO at day 0 or day 9. Both wildtype and AD model (APP/PS1-transgenic) mice were tested.
FIG. 6C-6F depicts the results of the mice on the color mode of the visual stimuli X-maze test. […] FIG. 6G-611 depict the results of the contrast mode of the visual stimuli X-maze test.
Old (18-month-old) mice were administered ETP69. Both a neurodegenerative model (AD+) and wild type siblings were tested. Mice were treated with i.p. injection of ETP69 [E; 10 mg/kg dissolved in dimethyl sulfoxide (DMSO)].

BDNF and VGF pathways = assay: Gene expression in treated mice (BDNF and VGF pathways); type: in vivo; conditions: mice treated with ETP69 vs DMSO
Description: Gene expression was measured in mice treated with ETP69 and DMSO. As depicted in FIG. 3, genes in the BDNF and VGF pathways were activated. These pathways are consistent with protective neurotrophic support. This pathway correlates with reduced H3K9me3 and improved cognition. FIG. 4A depicts genes in the BDNF pathway inhibited (left) and activated (right) by ETP69. The inactivated genes are quantified in FIGS. 4B-4F. The activated genes are quantified in FIGS. 4G-4M.

PSD95 = PSD95 irradiance in brain; set-up: species or system mice; conditions: mouse, in vivo
SET7/9 = molecular target: T1, SET7/9 (Homo sapiens, UniProt Q8WTS6); assay: Methyltransferase inhibition panel: SET7/9; type: biochemical
T1 sequence (Q8WTS6 1-366): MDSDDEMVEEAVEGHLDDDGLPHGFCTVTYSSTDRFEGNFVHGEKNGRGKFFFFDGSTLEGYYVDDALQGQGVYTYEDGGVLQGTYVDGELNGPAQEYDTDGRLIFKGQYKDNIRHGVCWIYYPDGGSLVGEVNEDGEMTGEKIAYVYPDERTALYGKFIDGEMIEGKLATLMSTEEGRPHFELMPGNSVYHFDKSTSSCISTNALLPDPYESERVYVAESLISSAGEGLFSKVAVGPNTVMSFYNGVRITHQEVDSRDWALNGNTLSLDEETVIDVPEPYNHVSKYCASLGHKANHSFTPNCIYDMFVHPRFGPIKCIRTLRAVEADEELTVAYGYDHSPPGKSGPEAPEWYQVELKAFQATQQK
Description: as §1

PRMT5 (C449S)/MEP50 = PRMT5 (C449S)/MEP50 (Homo sapiens, UniProt O14744, C449S); assay: Methyltransferase inhibition panel: PRMT5 (C449S)/MEP50; type: biochemical
Sequence of PRMT5 (C449S)/MEP50 (O14744 whole entry C449S): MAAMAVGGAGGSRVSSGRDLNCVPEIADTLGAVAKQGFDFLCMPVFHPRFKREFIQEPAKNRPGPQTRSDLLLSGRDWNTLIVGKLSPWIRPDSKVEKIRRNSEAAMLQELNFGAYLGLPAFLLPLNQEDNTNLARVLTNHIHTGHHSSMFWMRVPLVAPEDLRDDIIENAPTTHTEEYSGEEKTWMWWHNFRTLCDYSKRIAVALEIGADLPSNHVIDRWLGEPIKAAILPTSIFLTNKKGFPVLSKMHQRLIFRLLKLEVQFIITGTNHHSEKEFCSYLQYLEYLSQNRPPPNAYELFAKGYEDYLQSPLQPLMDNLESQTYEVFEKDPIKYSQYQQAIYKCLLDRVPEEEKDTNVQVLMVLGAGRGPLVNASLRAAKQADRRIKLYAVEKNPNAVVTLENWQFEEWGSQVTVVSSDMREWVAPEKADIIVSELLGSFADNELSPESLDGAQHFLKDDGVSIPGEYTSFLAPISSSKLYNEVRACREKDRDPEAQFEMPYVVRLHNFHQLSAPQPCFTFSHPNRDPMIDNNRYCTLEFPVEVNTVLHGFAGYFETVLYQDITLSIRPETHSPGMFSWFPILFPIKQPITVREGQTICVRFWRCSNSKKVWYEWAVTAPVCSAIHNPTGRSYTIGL
Sequence of PRMT5 (C449S)/MEP50 (Q9BQA1 whole entry partner): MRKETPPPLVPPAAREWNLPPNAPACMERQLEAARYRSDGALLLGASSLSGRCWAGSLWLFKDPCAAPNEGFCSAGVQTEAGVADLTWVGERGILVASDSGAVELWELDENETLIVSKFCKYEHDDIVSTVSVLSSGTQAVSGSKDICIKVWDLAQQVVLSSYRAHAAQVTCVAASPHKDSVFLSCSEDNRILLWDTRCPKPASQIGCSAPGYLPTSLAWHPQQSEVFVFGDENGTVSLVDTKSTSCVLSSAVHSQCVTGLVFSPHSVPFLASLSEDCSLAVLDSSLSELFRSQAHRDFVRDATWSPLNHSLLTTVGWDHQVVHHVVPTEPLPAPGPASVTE
Description: as §1

SUV39H1 = molecular target: T2, SUV39H1 (Homo sapiens, UniProt O43463); assay: Methyltransferase inhibition panel: SUV39H1; type: biochemical
T2 sequence (O43463 1-412): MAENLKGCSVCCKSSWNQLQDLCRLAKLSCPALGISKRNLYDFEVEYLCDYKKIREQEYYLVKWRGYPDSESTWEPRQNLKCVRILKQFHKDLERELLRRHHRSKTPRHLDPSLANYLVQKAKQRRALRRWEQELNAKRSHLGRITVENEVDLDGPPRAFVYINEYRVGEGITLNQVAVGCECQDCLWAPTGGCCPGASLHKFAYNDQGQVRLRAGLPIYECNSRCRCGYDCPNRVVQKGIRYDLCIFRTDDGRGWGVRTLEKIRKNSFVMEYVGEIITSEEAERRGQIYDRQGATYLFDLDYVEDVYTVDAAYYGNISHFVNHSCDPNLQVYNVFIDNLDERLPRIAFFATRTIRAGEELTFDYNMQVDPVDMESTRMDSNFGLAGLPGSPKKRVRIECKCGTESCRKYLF
Description: as §1

[2] = system: ionized calcium-binding adaptor molecule 1 (Iba-1); assay: Iba-1 immunoreactivity (microgliosis) in cerebral cortex; type: in vivo; conditions: neurodegenerative mice
Description: The effects of ETP69 on cerebral H3K9me3 levels was tested in old mice, in both a neurodegenerative model and WT siblings. The levels of brain H3K9me3 at days 4 (short-term) and 15 (long-term) following i.p. ETP69 injection (S regimen cohorts) were measured. […] These findings indicate that a single dose of ETP69 is sufficient to sustainably reduce H3K9me3 in the brains of old WT and neurodegenerative mice. Consistent with the observations in 18-month-old mice, ETP69 mitigated neuroinflammation, including by reduced ionized calcium-binding adaptor molecule 1 (Iba-1)^+ microgliosis in neurodegenerative mice (40%, p=0.0021; FIG. 16D).

[3] = read-out: Enzyme % Activity (relative to DMSO controls) Data 1
[4] = read-out: Enzyme % Activity (relative to DMSO controls) Data 2

For `CN1C(=O)[C@@]23C[C@](C)(C#N)[C@H](c4ccc5c(c4)OCO5)N2C(=O)[C@]1(C)SS3` (racemic) [ETP69, Rac-(3S,6S,7S,8aS)-6-(benzo[d][1,3]dioxol-5-yl)-2,3,7-trimethyl-1,4-dioxohexahydro-6H-3,8a-epidithiopyrrolo[1,2-a]pyrazine-7-carbonitrile], the “Enzyme % Activity (relative to DMSO controls) Data 1” value (EZH1 Complex) was 103.44%, the “Enzyme % Activity (relative to DMSO controls) Data 2” value (EZH1 Complex) was 104.86% and the “percent alternation and bidirectional movement” value ([1]; color mode, AD+ mice) was “significant increase”. The percent alternation ([1]; contrast mode, AD+ mice) was “significant increase”, the “colour X-maze spontaneous alternations” value ([1]; old WT mice, single dose 10 mg/kg i.p., p=0.0027) was “increased” and the “genes in the BDNF and VGF pathways” value (BDNF and VGF pathways) was “activated”. For the same molecule, the “expression of PSD95 irradiance” value (PSD95) was “increased”, the remaining activity at 20 µM (SET7/9; [3]) was 107% and the remaining activity at 20 µM (SET7/9; [4]) was 107%. It also gave a remaining activity at 20 µM (PRMT5 (C449S)/MEP50; [3]) of 121%, a remaining activity at 20 µM (PRMT5 (C449S)/MEP50; [4]) of 123% and a remaining activity at 20 µM (SUV39H1; [3]) of 2.36%. For the same molecule, the remaining activity at 20 µM (SUV39H1; [4]) was 2.53%, the “inhibition relative to DMSO controls” value (SUV39H1; summary of Table 1) was “at least 7500” and the “reduction of Iba-1+ microgliosis” value [2] was 40%.
